{
  "source": "patent US20080103110A1",
  "about": "“Compounds” (DRUG DISCOVERY LABORATORY AS, priority 2004, published 2008)",
  "key": {"[1]": {"biological_target": "T1, bovine serum albumin (BSA) (Bos taurus, UniProt P02769)", "T1 construct": "a solution of bovine serum albumin (BSA) in water", "T1 sequence (P02769 25-607)": "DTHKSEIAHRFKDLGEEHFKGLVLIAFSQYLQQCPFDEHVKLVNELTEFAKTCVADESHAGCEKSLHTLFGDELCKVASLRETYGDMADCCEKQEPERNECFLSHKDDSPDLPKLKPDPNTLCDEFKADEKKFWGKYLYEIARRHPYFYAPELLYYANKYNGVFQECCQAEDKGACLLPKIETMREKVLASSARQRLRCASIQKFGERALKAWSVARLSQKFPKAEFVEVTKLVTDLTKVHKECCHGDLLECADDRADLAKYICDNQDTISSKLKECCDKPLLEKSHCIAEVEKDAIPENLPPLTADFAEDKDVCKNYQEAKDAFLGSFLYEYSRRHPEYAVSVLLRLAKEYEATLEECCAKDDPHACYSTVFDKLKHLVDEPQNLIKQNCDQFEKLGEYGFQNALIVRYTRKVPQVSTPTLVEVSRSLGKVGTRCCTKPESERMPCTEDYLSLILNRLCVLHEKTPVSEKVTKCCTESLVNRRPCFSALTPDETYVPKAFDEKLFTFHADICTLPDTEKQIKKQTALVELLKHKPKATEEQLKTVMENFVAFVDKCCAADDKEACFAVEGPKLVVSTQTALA", "experiment": "Protein binding studies: BSA solution, centrifugal filter devices, drug in filtrate by HPLC", "type": "in vitro ADME", "conditions": "37° C.; for % Protein Binding: didanosine derivatives of Examples 24 and 25, 4% BSA; for % Albumin binding: method of Example 7, 4% BSA", "procedure": "The compound (approximately 5 mg) was dissolved in DMSO (approximately 1.8 ml). A small sample of this DMSO solution (approximately 5 mg) was added to a solution of bovine serum albumin (BSA) in water (approximately 1.8 ml, 4% BSA). Another sample of the DMSO solution (approximately 5 mg) was added to a solution of phosphate buffer pH 7.4 (isotonic) (approximately 1.8 ml).\nBoth samples were shaken in a water bath for 30 minutes at 37° C.\nThe devices were centrifugated at 4000 rpm for 1 hour at 37° C.\nThe amount of drug in the filtrates was determined by HPLC (C-18 column, phosphate buffer pH 2.2/acetonitrile, UV detection)."}, "[2]": {"system": "nude mice", "experiment": "Toxicity of 5-O-(azelaoyl) 1-beta-D-arabinofuranosyl-cytosine meglumine salt in nude mice", "type": "in vivo", "conditions": "8.5 mg/ml solution, 0.1 ml i.p. twice (second injection on day 3), nude mice (20 g) with implanted human colon cancer, observed for 13 days", "procedure": "(§1) A solution of 5′-O-(azelaoyl) 1-β-D-arabinofuranosyl-cytosine meglumine salt was prepared by dissolving N-methyl-D-glucamine (6.0 mg, 0.030 mmol) and 5′-O-(azelaoyl) 1-β-D-arabinofuranosyl-cytosine (8.5 mg, 0.020 mmol) in a sterile saline solution (1.0 ml). The solution was shaken with a ESPE Capmix shaker for 60 seconds before injection.\n(§2) The solution for injection (azelaoyl derivative) from Example 46 was administered i.p. twice (0.1 ml) to 4 nude mice (20 g). The mice had implanted human colon cancer on the leg. The second injection was on day 3."}, "[3]": {"system": "implanted human colon cancer", "experiment": "Efficacy of cytarabin azelaic acid derivative versus cytarabin, tumor size in nude mice", "type": "in vivo", "conditions": "solutions of Example 46, 0.1 ml i.p. twice, tumor size determined at day 13", "procedure": "A solution of cytarabin hydrochloride was prepared by dissolving the hydrochloride salt (5.0 mg) in a sterile saline solution (1.0 ml). The solution was shaken with a ESPE Capmix shaker for 60 seconds before injection.\nas §1, §2\nThe solutions (cytarabin and cytarabine azelaic derivative) described in Example 46 were injected as described in Example 47 (4 animals in each group). The size of the tumor was determined at day 13."}, "[4]": {"conditions": "6-mercaptopurine and 6-mercaptopurine prodrugs"}, "[5]": {"conditions": "didanosine and didanosine prodrugs"}},
  "note": "Counter-ions that a name gives are not always drawn.",
  "data": [
    {"smiles": "O=C(O)Cc1ccccc1CC(=O)OC[C@@H]1CC[C@H](n2cnc3c(O)ncnc32)O1", "note": "[5′-(2′3′-dideoxyinosine) mono 1,2-benzenediacetic acid ester]", "values": [
      {"measurement": "% Protein Binding", "setting": "[1]", "result": 25, "unit": "%"}
    ]},
    {"smiles": "O=C(O)CCc1ccc(CCC(=O)OC[C@@H]2CC[C@H](n3cnc4c(O)ncnc43)O2)cc1", "note": "[5′-(2′3′-dideoxyinosine) mono 1,4-benzenedipropionic acid ester]", "values": [
      {"measurement": "% Protein Binding", "setting": "[1]", "result": 63, "unit": "%"}
    ]},
    {"smiles": "O=C(O)Cc1cccc(CC(=O)OC[C@@H]2CC[C@H](n3cnc4c(O)ncnc43)O2)c1", "note": "[5′-(2′,3′-dideoxyinosine) mono 1,3-benzenediacetic acid ester]", "values": [
      {"measurement": "% Protein Binding", "setting": "[1]", "result": 38, "unit": "%"}
    ]},
    {"smiles": "O=C(O)c1cccc(C(=O)OC[C@@H]2CC[C@H](n3cnc4c(O)ncnc43)O2)c1", "note": "[5′-(2′,3′-dideoxyinosine) mono 1,3-benzenedicarboxylic acid ester]", "values": [
      {"measurement": "% Protein Binding", "setting": "[1]", "result": 51, "unit": "%"}
    ]},
    {"smiles": "O=C(O)Cc1ccc(CC(=O)OC[C@@H]2CC[C@H](n3cnc4c(O)ncnc43)O2)cc1", "note": "[5′-(2′,3′-dideoxyinosine) mono 1,4-benzenediacetic acid ester]", "values": [
      {"measurement": "% Protein Binding", "setting": "[1]", "result": 28, "unit": "%"}
    ]},
    {"smiles": "O=C(O)c1ccc(C(=O)OC[C@@H]2CC[C@H](n3cnc4c(O)ncnc43)O2)cc1", "note": "[5′-(2′,3′-dideoxyinosine) mono 1,4-benzenedicarboxylic acid ester]", "values": [
      {"measurement": "% Protein Binding", "setting": "[1]", "result": 44, "unit": "%"}
    ]},
    {"smiles": "Sc1ncnc2nc[nH]c12", "note": "[6-Mercaptopurine, reference compound]", "values": [
      {"measurement": "% Albumin binding", "setting": "[1]; [4]", "result": 10, "unit": "%"}
    ]},
    {"smiles": "COC(=O)CCCCCSc1ncnc2[nH]cnc12", "note": "[Example 9, 6-(1H-purin-6-ylthio)-hexanoic acid methyl ester]", "values": [
      {"measurement": "% Albumin binding", "setting": "[1]; [4]", "result": 72, "unit": "%"}
    ]},
    {"smiles": "COC(=O)CCCCCCCCCCCSc1ncnc2[nH]cnc12", "note": "[Example 10, 12-(1H-purin-6-ylthio)-dodecanoic acid methyl ester]", "values": [
      {"measurement": "% Albumin binding", "setting": "[1]; [4]", "result": "insoluble"}
    ]},
    {"smiles": "O=C(O)CCCCCCCCCCCSc1ncnc2[nH]cnc12", "note": "[Example 11, 12-(1H-purin-6-ylthio)dodecanoic acid]", "values": [
      {"measurement": "% Albumin binding", "setting": "[1]; [4]", "result": 100, "unit": "%"}
    ]},
    {"smiles": "O=C(O)CCCCC(=O)OCC1CCC(n2cnc3c(=O)[nH]cnc32)O1", "note": "(stereo not drawn) [Example 21, 2′,3′-dideoxy-5′-hydrogen hexanedioate inosine]", "values": [
      {"measurement": "% Albumin binding", "setting": "[1]; [5]", "result": 100, "unit": "%"}
    ]},
    {"smiles": "O=C(O)CCCCCCC(=O)OCC1CCC(n2cnc3c(=O)[nH]cnc32)O1", "note": "(stereo not drawn) [Example 22, 2′,3′-dideoxy-5′-hydrogen octanedioate inosine]", "values": [
      {"measurement": "% Albumin binding", "setting": "[1]; [5]", "result": 10, "unit": "%"}
    ]},
    {"smiles": "O=C(O)CCCCCCCCCCC(=O)OCC1CCC(n2cnc3c(=O)[nH]cnc32)O1", "note": "(stereo not drawn) [Example 23, 2′,3′-dideoxy-5′-hydrogen dodecanedioate inosine]", "values": [
      {"measurement": "% Albumin binding", "setting": "[1]; [5]", "result": 40, "unit": "%"}
    ]},
    {"smiles": "CC(C)(C)OC(=O)OC[C@@H]1CC[C@H](n2cnc3c(O)ncnc32)O1", "note": "[Example 24, 5′-Boc,-2′3′-dideoxyinosine]", "values": [
      {"measurement": "% Albumin binding", "setting": "[1]; [5]", "result": 94, "unit": "%"},
      {"measurement": "% Protein Binding", "setting": "[1]", "result": 8, "unit": "%"}
    ]},
    {"smiles": "CNC[C@H](O)[C@@H](O)[C@H](O)[C@H](O)CO.Nc1ccn([C@@H]2O[C@H](COC(=O)CCCCCCCC(=O)O)[C@@H](O)[C@@H]2O)c(=O)n1", "note": "[Example 45, 5′-O-(azelaoyl) 1-β-D-arabinofuranosyl-cytosine meglumine salt]", "values": [
      {"measurement": "sign of toxicity", "setting": "[2]", "result": "did not show any sign of toxicity"},
      {"measurement": "average tumor growth", "setting": "[3]", "result": "average tumor growth was higher for cytarabin treated mice than for mice treated with azelaic acid derivative"}
    ]},
    {"smiles": "Nc1ccn([C@@H]2O[C@H](CO)[C@@H](O)[C@@H]2O)c(=O)n1", "note": "[cytarabin, cytarabin hydrochloride, reference compound]", "values": [
      {"measurement": "average tumor growth", "setting": "[3]", "result": "higher for cytarabin treated mice than for mice treated with azelaic acid derivative"}
    ]}
  ]
}
